Values of other authors in patent US8815815B2, “Methods for producing phytoextracts from vegetation waters and olive oil pomaces and compositions obtained thereby” (Phenofarm S.r.l., priority 2011, dated 2014).
Converted amounts (≈) assume the structure as drawn.

Experiments:
[1] = test system: P-388 murine leukaemia cells
[2] = test system: PC12 neuronal cell culture; details: 1-methyl-4-phenylpyridine (MPP+) ion
neutrophils = details: in vitro

SMILES	ED50 cytotoxic action [1] [µg/mL]	protection activity against neurotoxicity induced by MPP+ [2]	chemotactic activity of neutrophils (neutrophils)
C[C@@H]1O[C@@H](O[C@@H]2[C@@H](O)[C@H](OCCc3ccc(O)c(O)c3)O[C@H](CO)[C@H]2OC(=O)/C=C/c2ccc(O)c(O)c2)[C@H](O)[C@H](O)[C@H]1O [verbascoside]	26 (≈ 41.6 µM)	protection activity against neurotoxicity	increasing the chemotactic activity of neutrophils
C[C@@H]1O[C@@H](O[C@@H]2[C@@H](O)[C@H](OCCc3ccc(O)c(O)c3)O[C@H](COC(=O)/C=C/c3ccc(O)c(O)c3)[C@H]2O)[C@H](O)[C@H](O)[C@H]1O [isoacteoside]	10 (≈ 16 µM)	–	–
